Measurements published in patent publication US9175003B2, “Substituted azoanthracene derivatives and intermediates for preparation thereof” (TransTech Pharma, LLC, priority 2009, dated 2015).

target: human GLP-1 receptor (Homo sapiens (Human), UniProt P43220); details: read-out: Mean EC50; cAMP, HTRF detection, 30 min at 37° C., HEK-293 cells expressing cloned human GLP-1 receptor
Sequence (P43220 24-463): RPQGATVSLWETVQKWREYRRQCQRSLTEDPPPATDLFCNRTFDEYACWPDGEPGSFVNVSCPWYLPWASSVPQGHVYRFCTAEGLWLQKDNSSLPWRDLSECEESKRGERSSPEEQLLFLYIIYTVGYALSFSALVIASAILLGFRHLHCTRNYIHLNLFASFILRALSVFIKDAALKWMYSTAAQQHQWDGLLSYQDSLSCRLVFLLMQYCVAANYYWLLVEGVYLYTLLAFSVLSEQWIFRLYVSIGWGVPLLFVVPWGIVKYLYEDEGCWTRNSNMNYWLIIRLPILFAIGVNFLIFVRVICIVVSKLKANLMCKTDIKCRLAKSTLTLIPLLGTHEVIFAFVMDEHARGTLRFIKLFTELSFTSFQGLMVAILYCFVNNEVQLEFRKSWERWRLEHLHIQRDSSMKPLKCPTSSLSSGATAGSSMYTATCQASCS
Experimental: Following overnight incubation of cells, media was removed, and compounds (at concentrations ranging from 0.0001 to 100 μM) were added to monolayer cells in Iscove's modified dulbecco's medium (IMDM), 100 μM RO 20-1724 PDE inhibitor, 0.1% BSA, 2% DMSO in a final volume of 100 μL, and incubated for 30 min at 37° C. […] Alternatively, cells were harvested and combined with compounds in suspension using the buffer and protocol described above. cAMP was quantified using a homogenous time-resolved fluorescence detection system (cAMP dynamic, CIS bio International).

`Cc1nc(C)c(S(=O)(=O)N2Cc3cc4c(cc3C[C@H]2C(=O)N[C@@H](Cc2ccc(-c3ccc(C#N)cc3)cc2)C(=O)O)OCC(c2ccc(OCc3ccc(Cl)c(Cl)c3)cc2)O4)s1` (stereo in doubt) [Example 130, (S)-3-(4′-Cyano-biphenyl-4-yl)-2-{[(S)-3-[4-(3,4-dichloro-benzyloxy)-phenyl]-7-(2,4-dimethyl-thiazole-5-sulfonyl)-2,3,6,7,8,9-hexahydro-[1,4]dioxino[2,3-g]isoquinoline-8-carbonyl]-amino}-propionic acid] and `Cc1nc(N)sc1S(=O)(=O)N1Cc2cc3c(cc2C[C@H]1C(=O)N[C@@H](Cc1ccc(-c2ccc(C#N)cc2)cc1)C(=O)O)OC[C@@H](c1ccc(OCc2ccc(Cl)c(Cl)c2)cc1)O3` [Example 60, (S)-2-({(3R,8S)-7-(2-Amino-4-methyl-thiazole-5-sulfonyl)-3-[4-(3,4-dichloro-benzyloxy)-phenyl]-2,3,6,7,8,9-hexahydro-[1,4]dioxino[2,3-g]isoquinoline-8-carbonyl}-amino)-3-(4′-cyano-biphenyl-4-yl)-propionic acid] are within 1.5-fold of each other in EC50: 111 nM for the first, 109 nM for the second.

Compared with `Cc1nc(N2CCOCC2)ccc1S(=O)(=O)N1Cc2cc3c(cc2C[C@H]1C(=O)N[C@@H](Cc1ccc(-c2ccc(C#N)cc2)cc1)C(=O)O)OCC(c1ccc(OCc2ccc(Cl)c(Cl)c2)cc1)O3` (stereo in doubt) [Example 133, (S)-3-(4′-Cyano-biphenyl-4-yl)-2-{[(S)-3-[4-(3,4-dichloro-benzyloxy)-phenyl]-7-(2-methyl-6-morpholin-4-yl-pyridine-3-sulfonyl)-2,3,6,7,8,9-hexahydro-[1,4]dioxino[2,3-g]isoquinoline-8-carbonyl]-amino}-propionic acid], `CCNc1ccc(S(=O)(=O)N2Cc3cc4c(cc3C[C@H]2C(=O)N[C@@H](Cc2ccc(-c3ccc(C#N)cc3)cc2)C(=O)O)OCC(c2ccc(OCc3ccc(Cl)c(Cl)c3)cc2)O4)c(C)n1` (stereo in doubt) [Example 135, (S)-3-(4′-Cyano-biphenyl-4-yl)-2-{[(S)-3-[4-(3,4-dichloro-benzyloxy)-phenyl]-7-(6-ethylamino-2-methyl-pyridine-3-sulfonyl)-2,3,6,7,8,9-hexahydro-[1,4]dioxino[2,3-g]isoquinoline-8-carbonyl]-amino}-propionic acid] is 5.3-fold higher in EC50: 54 nM for the first, 284 nM for the second. The first is the more potent here.

Compared with `COCCNc1ccc(S(=O)(=O)N2Cc3cc4c(cc3C[C@H]2C(=O)N[C@@H](Cc2ccc(-c3ccc(C#N)cc3)cc2)C(=O)O)OCC(c2ccc(OCc3ccc(Cl)c(Cl)c3)cc2)O4)c(C)n1` (stereo in doubt) [Example 136, (S)-3-(4′-Cyano-biphenyl-4-yl)-2-({(S)-3-[4-(3,4-dichloro-benzyloxy)-phenyl]-7-[6-(2-methoxy-ethylamino)-2-methyl-pyridine-3-sulfonyl]-2,3,6,7,8,9-hexahydro-[1,4]dioxino[2,3-g]isoquinoline-8-carbonyl}-amino)-propionic acid], `N#Cc1ccc(-c2ccc(C[C@H](NC(=O)[C@@H]3Cc4cc5c(cc4CN3S(=O)(=O)c3ccc(-c4csc(N)n4)cc3)OC(c3ccc(OCc4ccc(Cl)c(Cl)c4)cc3)CO5)C(=O)O)cc2)cc1` (stereo in doubt) [Example 139, (S)-2-({(S)-7-[4-(2-Amino-thiazol-4-yl)-benzenesulfonyl]-3-[4-(3,4-dichloro-benzyloxy)-phenyl]-2,3,6,7,8,9-hexahydro-[1,4]dioxino[2,3-g]isoquinoline-8-carbonyl}-amino)-3-(4′-cyano-biphenyl-4-yl)-propionic acid] is 1.7-fold higher in EC50: 50 nM for the first, 85 nM for the second. The first is the more potent here.

For `CC(=O)Nc1nc(-c2ccc(S(=O)(=O)N3Cc4cc5c(cc4C[C@H]3C(=O)N[C@@H](Cc3ccc(-c4ccc(C#N)cc4)cc3)C(=O)O)OCC(c3ccc(OCc4ccc(Cl)c(Cl)c4)cc3)O5)cc2)cs1` (stereo in doubt) [Example 138, (S)-2-({(S)-7-[4-(2-Acetylamino-thiazol-4-yl)-benzenesulfonyl]-3-[4-(3,4-dichloro-benzyloxy)-phenyl]-2,3,6,7,8,9-hexahydro-[1,4]dioxino[2,3-g]isoquinoline-8-carbonyl}-amino)-3-(4′-cyano-biphenyl-4-yl)-propionic acid], the EC50 was 241 nM.
